Data from patent publication EP2924040A1, “2-Amino-1-(o-tolyl)pyrrolo[3,2-b]quinoxaline-3-carboxamide derivates” (Universität Zürich, priority 2014, dated 2015).

Molecular target: T1, EphB4 (Homo sapiens, UniProt P54760)
T1 sequence (P54760 16-987): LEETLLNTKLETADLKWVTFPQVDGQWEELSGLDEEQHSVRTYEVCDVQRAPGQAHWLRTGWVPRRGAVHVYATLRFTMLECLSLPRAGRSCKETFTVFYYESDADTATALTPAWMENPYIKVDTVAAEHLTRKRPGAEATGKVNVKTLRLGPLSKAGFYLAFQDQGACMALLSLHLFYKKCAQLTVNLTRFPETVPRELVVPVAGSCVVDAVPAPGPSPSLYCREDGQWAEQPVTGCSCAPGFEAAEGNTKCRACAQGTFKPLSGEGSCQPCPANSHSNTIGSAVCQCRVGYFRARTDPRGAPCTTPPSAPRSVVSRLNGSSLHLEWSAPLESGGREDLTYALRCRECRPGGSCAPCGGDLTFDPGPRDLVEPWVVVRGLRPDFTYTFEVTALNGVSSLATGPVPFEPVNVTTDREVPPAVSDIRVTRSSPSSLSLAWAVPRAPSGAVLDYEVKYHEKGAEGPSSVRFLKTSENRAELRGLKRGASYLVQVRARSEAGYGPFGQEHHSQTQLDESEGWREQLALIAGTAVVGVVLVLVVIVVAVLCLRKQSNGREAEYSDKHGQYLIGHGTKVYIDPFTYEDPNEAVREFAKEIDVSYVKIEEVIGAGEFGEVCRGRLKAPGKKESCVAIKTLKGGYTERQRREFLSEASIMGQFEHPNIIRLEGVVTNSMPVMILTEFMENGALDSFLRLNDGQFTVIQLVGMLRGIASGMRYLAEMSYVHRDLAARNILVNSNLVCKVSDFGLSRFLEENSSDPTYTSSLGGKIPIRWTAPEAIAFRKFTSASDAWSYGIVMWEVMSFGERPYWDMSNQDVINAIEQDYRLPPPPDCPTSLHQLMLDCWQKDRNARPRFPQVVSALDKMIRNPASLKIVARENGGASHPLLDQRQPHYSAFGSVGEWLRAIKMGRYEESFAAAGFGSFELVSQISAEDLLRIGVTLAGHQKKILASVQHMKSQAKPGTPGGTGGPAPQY
Assay: FRET based enzymatic assay (Z'-LYTE Kinase Assay Kit-Tyr 1 Peptide)
Assay type: biochemical
Conditions: EphB4 25 ng/µL, ATP 125 µM, room temperature, 2 h
Procedure: Selected compounds were tested in the Z'-LYTE™ Kinase Assay Kit-Tyr 1 Peptide (Invitrogen, USA) in a Corning 384 well microtiter plate. Fluorescence progress curves were measured upon excitation at 400 nm and emission at 445 and 520 nm.

Question: Which IC50 does the source give for Cc1ccc(O)cc1-n1c(N)c(C(N)=O)c2nc3ccccc3nc21 [Compound 2, 2-Amino-1-(5-hydroxy-2-methylphenyl)-1H-pyrrolo[2,3-b]quinoxaline-3-carboxamide] here?
Answer: 11 nM
